Data set [1] deals with T1, Human Neuropeptide Y2 Receptor (Homo sapiens, UniProt P49146).
T1 construct: purchased CHEMICON HTS066M
T1 sequence (P49146 1-381): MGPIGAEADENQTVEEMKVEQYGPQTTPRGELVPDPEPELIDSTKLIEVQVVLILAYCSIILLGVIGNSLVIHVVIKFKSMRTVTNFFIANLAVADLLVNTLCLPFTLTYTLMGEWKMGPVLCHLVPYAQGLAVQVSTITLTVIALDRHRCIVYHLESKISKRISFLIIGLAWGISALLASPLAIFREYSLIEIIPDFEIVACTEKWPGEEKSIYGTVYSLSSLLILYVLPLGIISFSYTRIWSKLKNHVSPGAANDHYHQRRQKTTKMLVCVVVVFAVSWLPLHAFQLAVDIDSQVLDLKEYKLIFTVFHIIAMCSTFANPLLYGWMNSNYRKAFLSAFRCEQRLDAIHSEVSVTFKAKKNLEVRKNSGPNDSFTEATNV
In words: Radioligand binding competition assay (RLB). The conditions noted are these: Table 3, 125I-PYY(1-36) competition; read-out: Ki. The procedure, abridged: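 Competition binding used membranes expressing the receptor (0.5 μg protein/well) in 50 mM HEPES, 5 mM MgCl2, 1 mM CaCl2, pH 7.4 with 0.2% ovalbumin, incubated 2 h at room temperature with shaking. Bound radioligand was collected by filtration onto PEI-soaked GF/C filters and counted; IC50 from nonlinear sigmoidal fits.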

Data set [2] in a line: Solubility determination. The conditions noted are these: for Sol6: pH 6; for Sol7: pH 7. A digest of the protocol:
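Solubility is derived from the ratio of reversed-phase peak areas, filtered sample over a control dissolved at 1 mg/ml in 50% acetonitrile. Peptides are agitated for 2 hours at room temperature in 0.1 M sodium diphosphate at pH 6.4 or 7.0, aiming at 10 mg/ml.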

The text below walks through data of patent US12391737B2, “Soluble NPY2 receptor agonists” (Boehringer Ingelheim International GmbH, priority 2020, dated 2025).

pKi: −log10 of the molar value.

On to `CC(C)CC(=O)N[C@@H](C)C(=O)N1CCC[C@H]1C(=O)N[C@@H](C)C(=O)N[C@@H](CCCCNC(=O)CCCCCNC(=O)CC[C@H](NC(=O)CCCCCCCCCCCCCCCCC(=O)O)C(=O)O)C(=O)N1CCC[C@H]1C(=O)N[C@@H](CCC(=O)O)C(=O)N[C@@H](CCC(=O)O)C(=O)N[C@@H](CC(=O)O)C(=O)N[C@@H](C)C(=O)N[C@@H](CO)C(=O)N1CCC[C@H]1C(=O)N[C@@H](CCC(=O)O)C(=O)N[C@@H](CCC(=O)O)C(=O)N[C@@H](CC(C)C)C(=O)N[C@@H](CCC(N)=O)C(=O)N[C@@H](CCCNC(=N)N)C(=O)N[C@@H](Cc1ccc(O)cc1)C(=O)N[C@@H](Cc1ccc(O)cc1)C(=O)N[C@H](C(=O)N[C@@H](CCC(N)=O)C(=O)N[C@@H](CC(C)C)C(=O)N[C@@H](CCCNC(=N)N)C(=O)N[C@@H](Cc1c[nH]cn1)C(=O)N[C@@H](Cc1ccc(O)cc1)C(=O)N[C@@H](Cc1ccc(O)cc1)C(=O)N[C@@H](CC(N)=O)C(=O)N[C@@H](Cc1c[nH]c2ccccc12)C(=O)N[C@@H](CC(C)C)C(=O)N[C@H](C(=O)N[C@@H](CCCNC(=N)N)C(=O)N[C@@H](CCC(N)=O)C(=O)N[C@@H](CCCNC(=N)N)C(=O)N[C@@H](Cc1ccc(O)cc1)C(N)=O)[C@@H](C)O)C(C)C` [Compound 59, N{alpha-4}-(3-methylbutanoyl)-N{epsilon-7}-(6-[(4S)-4-carboxy-4-(17-carboxyheptadecanamido)butanamido]hexanoyl)-[4A,6A,7K,9E,18Q,22V,23Q,28Y,30W,31L]-hPYY(4-36)], for which, in data set [1], the pKi was 8.71. Further, in data set [2], the “Sol6” value came to 9.7 mg/mL and the “Sol7” value was 9.6 mg/mL.

For the compound `CC(C)CC(=O)N[C@@H](C)C(=O)N1CCC[C@H]1C(=O)N[C@@H](CCC(=O)O)C(=O)N[C@@H](CCCCNC(=O)CCCCCNC(=O)CC[C@H](NC(=O)CCCCCCCCCCCCCCCCC(=O)O)C(=O)O)C(=O)N1CCC[C@H]1C(=O)N[C@@H](CCC(=O)O)C(=O)N[C@@H](CCC(=O)O)C(=O)N[C@@H](CC(=O)O)C(=O)N[C@@H](C)C(=O)N[C@@H](CO)C(=O)N1CCC[C@H]1C(=O)N[C@@H](CCC(=O)O)C(=O)N[C@@H](CCC(=O)O)C(=O)N[C@@H](CC(C)C)C(=O)N[C@@H](CCC(N)=O)C(=O)N[C@@H](CCCNC(=N)N)C(=O)N[C@@H](Cc1ccc(O)cc1)C(=O)N[C@@H](Cc1ccc(O)cc1)C(=O)N[C@H](C(=O)N[C@@H](CO)C(=O)N[C@@H](CC(C)C)C(=O)N[C@@H](CCCNC(=N)N)C(=O)N[C@@H](Cc1c[nH]cn1)C(=O)N[C@@H](Cc1ccc(O)cc1)C(=O)N[C@@H](Cc1ccc(O)cc1)C(=O)N[C@@H](CCC(N)=O)C(=O)N[C@@H](Cc1c[nH]c2ccccc12)C(=O)N[C@@H](CC(C)C)C(=O)N[C@H](C(=O)N[C@@H](CCCNC(=N)N)C(=O)N[C@@H](CCC(N)=O)C(=O)N[C@@H](CCCNC(=N)N)C(=O)N[C@@H](Cc1ccc(O)cc1)C(N)=O)[C@@H](C)O)C(C)C` [Compound 60, N{alpha-4}-(3-methylbutanoyl)-N{epsilon-7}-(6-[(4S)-4-carboxy-4-(17-carboxyheptadecanamido)butanamido]hexanoyl)-[4A,7K,9E,18Q,22V,28Y,29Q,30W,31L]-hPYY(4-36)], the pKi in data set [1] is 8.22. For the same compound, in data set [2], the “Sol6” value was >10.0 mg/mL and the “Sol7” value amounted to 10.0 mg/mL.
